Test results taken from patent US8969310B2, “Potentiation of anticancer agents” (Angiochem Inc., priority 2005, dated 2015).
Read-outs that look alike come from different tables or passages of the source.

Key:
[1] = mouse, in vivo
Method: (§2) Briefly, the right common carotid of ketamine/xylazine (140/8 mg/kg i.p.) anesthetized mice was exposed and ligated at the level of the bifurcation of the common carotid, rostral to the occipital artery. The common carotid was then catheterized rostrally with polyethylene tubing filled with heparin (25 U/ml) and mounted on a 26-gauge needle. […] Prior to the perfusion, the contralateral blood flow contribution was eliminated by severing heart ventricles. […] Mice were then decapitated to terminate perfusion and the right hemisphere was isolated on ice before being subjected to capillary depletion.
(§3) After perfusion, the brain was further perfused for 60 sec with Ringer solution to wash the excess of radiolabeled molecules and then the right hemisphere was isolated on ice before being subjected to capillary depletion.

[2] = test system: MDA-MB-231 breast cancer cell line; assay: In vitro cytotoxicity, MDA-MB-231; assay type: cell-based
[3] = test system: NCI-H460 subcutaneous tumor; assay: Subcutaneous NCI-H460 tumor growth; assay type: in vivo, mice; details: i.v.
Method: Briefly, mice received a subcutaneous injection of 2.5×10^6 human U87 glioma cells or NCI-H460 cells. […] Treatments were then administered twice a week until animals were sacrificed. Mice were monitored every day for clinical symptoms and weight loss. Tumor volume was estimated with a kaliper and the following equation (tumor volume=π/2×(length (mm)×width^2 (mm)).
In the first subcutaneous tumor growth study, NCI-H460 cells were implanted in mice right flank (FIG. 22A).

[4] = test system: HCC1954 breast cancer cell line; assay: In vitro cytotoxicity, HCC1954; assay type: cell-based
[5] = test system: RBE4 endothelial cells from rat brain; assay: Cell proliferation assay, RBE4; assay type: cell-based; details: read-out: IC50, effect on cell proliferation
[6] = test system: NCI-H460 lung carcinoma cells; assay: Cell proliferation assay ([3H]-thymidine incorporation), NCI-H460; assay type: cell-based; details: for IC50: Homo sapiens
[7] = test system: SK-HEP-1 hepatocarcinoma cells; assay: In vitro cytotoxicity, SK-HEP-1; assay type: cell-based, human
[8] = test system: Calu-3 lung carcinoma cells; assay: Cell proliferation assay, Calu-3; assay type: cell-based; details: Homo sapiens, read-out: IC50, effect on cell proliferation
[9] = Preliminary comparative toxicity in beagle dogs
[10] = Tissue distribution and pharmacokinetics after i.v. bolus (AUC0-4); assay type: in vivo, mice; details: equivalent to 5 mg/kg of Taxol
Method: The unconjugated anticancer drug and the conjugates were injected intra-veinously (i.v.) in mice as a bolus. Tissues were collected at different times (0.25, 0.5, 1 and 4 hrs) and homogenized. […] Radioactivity associated with the tissues was therefore quantified. The area under the curve (AUC0-4) was estimated using the Prism software and was plotted for the different tissues (FIG. 10).

P-gp (human MDR1) = P-gp (human MDR1) (Homo sapiens, UniProt P08183); assay: Accumulation in MDCK-MDR1 cells with or without cyclosporin A (P-gp substrate test)
Method: In order to determine whether the conjugates of the present invention were P-gp substrates or not, MDCK cells were stably transfected with human MDR1 (MDCK-MDR1) and were subsequently incubated with unconjugated-anticancer drug or with the conjugates of the present invention. […] After the incubation, cells were washed and accumulation of radioactivity inside the cells or intracellular fluorescence was quantified. The increased in the accumulation of these drugs is expressed in term of x-fold compared to their respective control measured in the absence of CsA. Thus, the control value for each drug was set to 1-fold.

[11] = test system: MDA-MB-468 breast cancer cell line; assay: In vitro cytotoxicity, MDA-MB-468; assay type: cell-based
U-87 glioblastoma cells = assay: Cell proliferation assay ([3H]-thymidine incorporation), U-87; assay type: cell-based, human; details: for IC50: Homo sapiens
Method: (§1) For the in vitro cell proliferation assay, between 2.5 and 5×10^4 of U87 or A549 cells were seeded in a 24 well tissue culture microplate in a final volume of 1 ml of medium with 10% serum and incubated for 24 hours at 37° C. and 5% CO2. The medium was then replaced with serum-free medium and incubated overnight. The next morning the drug was freshly dissolved in dimethyl sulfoxide (DMSO) and the medium was replaced with complete medium containing the drug at different concentrations in triplicates. The final concentration of DMSO was 0.1%. The control used is a microplate well with cells and without drug. The cells were incubated for 48 to 72 hrs at 37° C. and 5% CO2. After the incubation, the medium was changed and replaced with 1 ml of complete medium containing [^3H]-thymidine (1 μCi/assay). The plate was incubated at 37° C. and 5% CO2 for 4 hrs. The medium was removed and the cells washed with PBS heated at 37° C. The cells were fixed with a mix of ethanol:acetic acid (3;1), then washed with water and precipitated 3 times with 10% of ice-cold TCA (trichloroacetic acid). Finally 500 μl of PCA (perchloric acid) were added to the wells and the microplates were heated for 30 min at 65° C. and 30 min at 75° C. The contents of each well was then transferred in a scintillation vial with 10 ml of scintillation cocktail and the activity was measured in CPM (count per minute) on a liquid scintillation counter Tri-Carb from Packard.
The anti-proliferatice activity of the conjugate against cancer cells in vitro was further assessed.

U-118 glioblastoma cells = assay: Cell proliferation assay ([3H]-thymidine incorporation), U-118; assay type: cell-based; details: read-out: IC50, effect on cell proliferation
[12] = test system: BT-474 breast cancer cell line; assay: In vitro cytotoxicity, BT-474; assay type: cell-based
[13] = test system: A549 lung carcinoma cells; assay: Cell proliferation assay ([3H]-thymidine incorporation), A549; assay type: cell-based; details: Homo sapiens, read-out: IC50, effect on cell proliferation
Method: as §1, with “Finally 500 μl of PCA (perchloric acid) were added to the wells and the microplates were heated for 30 min at 65° C. and 30 min at 75° C.” left out, “Packard. […]” for “Packard.”

NCI-H460 cell-cycle = assay: NCI-H460 cell cycle measured by FACS; assay type: cell-based; details: NCI-H460, 24 hrs; Taxol 100 nM, TxlAn2 conjugate 30 nM
[14] = comparator products; data based on rat GLP toxicity programs; cited from earlier work
[15] = In situ mouse brain perfusion; details: 5 min perfusion, [125I]-labelled, FIG. 7
Method: as §2, §3

LRP = molecular target: T1, LRP (Mus musculus, UniProt Q91ZX7); assay: [125I]-RAP uptake in MEF-1 (LRP+) and PEA-13 (LRP-) fibroblasts; assay type: cell-based
T1 construct: endogenous in cells; host or cells: MEF-1 fibroblasts (LRP-positive), with PEA-13 fibroblasts (LRP-negative) as subtraction control
Method: The LRP-dependent accumulation of [^125I]-RAP was calculated by substracted the results for the uptake obtained with PEA-13 cells from the results obtained with MEF-1;

[16] = various aprotinin concentrations

Chain of P-gp (human MDR1) (P08183 whole entry): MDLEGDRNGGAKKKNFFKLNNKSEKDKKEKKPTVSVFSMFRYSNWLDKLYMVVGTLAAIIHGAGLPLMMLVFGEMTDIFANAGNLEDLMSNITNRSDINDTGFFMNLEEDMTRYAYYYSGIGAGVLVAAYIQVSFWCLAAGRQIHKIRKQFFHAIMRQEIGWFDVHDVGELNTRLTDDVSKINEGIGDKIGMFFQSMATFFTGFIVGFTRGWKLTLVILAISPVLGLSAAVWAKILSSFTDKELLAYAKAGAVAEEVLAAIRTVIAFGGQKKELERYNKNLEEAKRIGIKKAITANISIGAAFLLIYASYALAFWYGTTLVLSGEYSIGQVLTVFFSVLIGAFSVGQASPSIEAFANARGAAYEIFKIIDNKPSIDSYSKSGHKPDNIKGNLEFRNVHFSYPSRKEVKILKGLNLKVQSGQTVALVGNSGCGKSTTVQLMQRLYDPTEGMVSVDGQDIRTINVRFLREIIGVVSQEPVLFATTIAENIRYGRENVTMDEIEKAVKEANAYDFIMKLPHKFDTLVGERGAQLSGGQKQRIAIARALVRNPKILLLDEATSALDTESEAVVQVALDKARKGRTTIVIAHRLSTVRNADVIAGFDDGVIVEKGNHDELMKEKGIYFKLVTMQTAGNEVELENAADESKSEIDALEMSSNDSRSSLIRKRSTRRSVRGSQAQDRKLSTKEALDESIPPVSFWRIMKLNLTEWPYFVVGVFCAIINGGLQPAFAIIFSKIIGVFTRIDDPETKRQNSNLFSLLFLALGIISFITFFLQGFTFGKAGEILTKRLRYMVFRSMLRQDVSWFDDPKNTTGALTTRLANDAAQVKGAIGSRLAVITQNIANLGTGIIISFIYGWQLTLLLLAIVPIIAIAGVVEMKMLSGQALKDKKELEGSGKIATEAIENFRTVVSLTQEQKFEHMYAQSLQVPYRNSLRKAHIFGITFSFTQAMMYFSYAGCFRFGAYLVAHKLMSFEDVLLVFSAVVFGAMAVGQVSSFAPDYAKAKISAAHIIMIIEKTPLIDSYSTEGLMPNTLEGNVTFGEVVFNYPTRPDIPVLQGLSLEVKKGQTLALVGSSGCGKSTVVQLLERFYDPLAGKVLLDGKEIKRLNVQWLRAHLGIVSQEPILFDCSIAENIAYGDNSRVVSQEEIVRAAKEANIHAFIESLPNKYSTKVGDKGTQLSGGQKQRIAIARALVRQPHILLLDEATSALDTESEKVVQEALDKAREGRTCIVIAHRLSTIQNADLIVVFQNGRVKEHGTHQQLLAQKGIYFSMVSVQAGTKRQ

C[C@@H](O)[C@H](N)C(=O)N[C@@H](Cc1ccccc1)C(=O)N[C@@H](Cc1ccccc1)C(=O)N[C@@H](Cc1ccc(O)cc1)C(=O)NCC(=O)NCC(=O)N[C@@H](CO)C(=O)N[C@@H](CCCNC(=N)N)C(=O)NCC(=O)N[C@@H](CCCCN)C(=O)N[C@@H](CCCNC(=N)N)C(=O)N[C@@H](CC(N)=O)C(=O)N[C@@H](CC(N)=O)C(=O)N[C@@H](Cc1ccccc1)C(=O)N[C@@H](CCCCN)C(=O)N[C@H](C(=O)N[C@@H](CCC(=O)O)C(=O)N[C@@H](CCC(=O)O)C(=O)N[C@@H](Cc1ccc(O)cc1)C(=O)O)[C@@H](C)O [Angiopep-2]
Accumulation into brain parenchyma compared with vascular marker [14C]-inulin [1]: higher than that of the vascular marker

CC(=O)O[C@H]1C(=O)[C@@]2(C)[C@H]([C@H](OC(=O)c3ccccc3)[C@]3(O)C[C@H](OC(=O)[C@H](O)[C@@H](NC(=O)c4ccccc4)c4ccccc4)C(C)=C1C3(C)C)[C@]1(OC(C)=O)CO[C@@H]1C[C@@H]2O [Taxol]
Residual survival % Mean [2]: 45.62% | IC50 ([2]; Homo sapiens): 17.6 nM | Tumor growth Δ ([3]; Day 0 to Day 11): 371 ± 58 mm^3 | T/C ([3]; Day 11): 62% | Tumor volume, Day 0 ([3]; baseline, equivalent of 10 mg/kg of Taxol): 112 ± 12 mm^3 | Tumor volume, Day 11 ([3]; equivalent of 10 mg/kg of Taxol, twice a week): 483 ± 63 mm^3 | Residual survival % Mean [4]: 48.82% | IC50 ([4]; Homo sapiens): 6.12 nM | IC50 [5]: 137 nM | IC50 ([6]; NCI-H460, read-out: IC50, effect on cell proliferation): 9.3 nM | IC50 ([6]; NCI-H460, Table 3B, read-out: IC50 (nM) Mean): 6.61 nM | Residual survival % Mean ([6]; NCI-H460): 24.98% | Residual survival % Mean [7]: 55.18% | IC50 ([7]; Homo sapiens, SK-HEP1): 8.84 nM | IC50 [8]: 17.2 nM | Platelets ([9]; 4-days post-treatment): 200 ×109 cells/L | Reticulocytes ([9]; 4-days post-treatment): 0.011 ×1012 cells/L | White Blood Cells ([9]; 4-days post-treatment): 4.3 ×109 cells/L | Platelets ([9]; 8-days post treatment): 340 ×109 cells/L | Reticulocytes ([9]; 8-days post treatment): 0.11 ×1012 cells/L | White Blood Cells ([9]; 8-days post treatment): 8.7 ×109 cells/L | Platelets ([9]; Pre-treatment): 250 ×109 cells/L | Reticulocytes ([9]; Pre-treatment): 0.031 ×1012 cells/L | White Blood Cells ([9]; Pre-treatment): 9.7 ×109 cells/L | AUC 0-4 ([10]; Brain): 0.07 μg/g of tissue | AUC 0-4 ([10]; Eye): 0.57 μg/g of tissue | AUC 0-4 ([10]; Heart): 2.5 μg/g of tissue | AUC 0-4 ([10]; Kidney): 8.0 μg/g of tissue | AUC 0-4 ([10]; Liver): 22 μg/g of tissue | AUC 0-4 ([10]; Lung): 1.1 μg/g of tissue | P-gp substrate or not (P-gp (human MDR1); MDCK-MDR1): are P-gp substrates | Residual survival % Mean [11]: 54.26% | IC50 ([11]; Homo sapiens): 13.5 nM | IC50 (U-87 glioblastoma cells; 72 h, read-out: IC50, proliferation of glioblastoma cells (U-87)): ~10 nM | IC50 (U-87 glioblastoma cells; read-out: IC50, effect on cell proliferation): 9.5 nM | IC50 (U-87 glioblastoma cells; U-87 MG, Table 3B, read-out: IC50 (nM) Mean): 12.9 nM | Residual survival % Mean (U-87 glioblastoma cells; U-87 MG): 40.35% | IC50 (U-118 glioblastoma cells): 7.2 nM | Residual survival % Mean [12]: 52.24% | IC50 ([12]; Homo sapiens, Table 3B): 62.9 nM | IC50 [13]: 3.6 nM | Effect on cell cycle (NCI-H460 cell-cycle): induce a blockade of NCI-H460 cell in G2/M phase | MTD [14]: 8 mg/kg

CC[C@]1(O)C[C@@H]2CN(CCc3c([nH]c4ccccc34)[C@@](C(=O)OC)(c3cc4c(cc3OC)N(C)[C@H]3[C@@](O)(C(=O)OC)[C@H](OC(C)=O)[C@]5(CC)C=CCN6CC[C@]43[C@@H]65)C2)C1 [vinblastine]
P-gp substrate or not (P-gp (human MDR1); MDCK-MDR1): are P-gp substrates

aprotinin
Initial brain uptake (transport rate) compared with transferrin [15]: highest initial transport rate than transferrin | LRP-dependent accumulation of [125I]-RAP (MEF-1 minus PEA-13) (LRP; excess, 25 μM, FIG. 18): affect the LRP-dependent accumulation of [^125I]-RAP | Uptake of [125I]-RAP in LRP-negative cells (PEA-13) (LRP; [16]): almost unaffected | Uptake of [125I]-RAP in LRP-positive cells (MEF-1) (LRP; [16]): inhibited the transport of [^125I]-RAP in positive LRP cells in a dose-dependent manner

rhodamine
Increase in accumulation in the presence of CsA, x-fold of control without CsA (P-gp (human MDR1); MDCK-MDR1, 1 hr 37° C., 10 μM cyclosporin A): 7.5 fold | P-gp substrate or not (P-gp (human MDR1); MDCK-MDR1, with or without CsA): are P-gp substrates
